Results as given in patent publication US9688633B2, “Substituted piperidines with antiparasitic activity” (INSTITUT DE RECHERCHE POUR LE DEVELOPPEMENT, priority 2014, dated 2017).
Like-named read-outs stand apart in the source and are kept apart here.

Experiments:
[1] = tested on: Plasmodium falciparum FCR-3; experiment: In vitro antiplasmodial drug assay ([3H]-hypoxanthine incorporation); type: cell-based
Protocol: The drugs dissolved in dimethylsulfoxide (DMSO) were added at final concentrations ranging from 200 to 0.1 μM. All experiments were performed in triplicate. The final DMSO concentration was never greater than 0.1%. […].
% Inhibition of the incorporation of labeled hypoxanthine=100−(P/T*100),
P: c.p.m. for every concentration, and
T: negative control (red blood cells without drug).

[2] = tested on: VERO cells; experiment: Toxicity assay, MTT viability on VERO cells; type: cell-based, African Green Monkey; details: VERO cells survival, 48 hours, MTT; average of three independent determinations; read-out: TC50 (the source's name)
Protocol: (§1) Drugs were added at different concentrations and the cells were cultured for 48 hours. The effect was determined using the 3-(4,5-dimethylthiazol-2-yl)-2,5-diphenyltetrazolium bromide (MTT) viability assay. Four hours after the addition of MTT, 100 μl of lysis buffer (50% isopropanol, 30% water, 20% SDS) were added and the cells were incubated at room temperature for 15 min under agitation. Finally, optical density was read at 590 nm with a 96-well scanner (Bio-Rad). All experiments were performed in triplicate.

[3] = tested on: mice; experiment: Cytotoxicity (toxicity) after administration in a malaria murine model; type: in vivo, mouse; details: 50 mg·kg^-1, malaria murine model
Protocol: The cytotoxicity of Compound 7 was compared to the cytotoxicity of Compound 31 of the publication of Silvia Perez-Silanes et al., Molecules 2009, 14, 4120-4135, the compounds only differentiated by the nature of the Ar group (4-fluoro-1-phenyl group vs benzo[b]thiophenyl).
Both compounds were administered at 50 mg·kg^−1 in a malaria murine model.

[4] = tested on: P. berghei ANKA; experiment: In vivo antiplasmodial drug assay (4-day suppressive test) in murine model; details: Swiss male mice, 4 consecutive days, read on day 4
Protocol: The antiplasmodial activity of Compound 7 was tested in vivo in a murine model. The antiplasmodial activity of a Compound A representative of the prior art was also tested: Studies were conducted according to the French and Colombian guidelines on laboratory animal use and care (No 2001-464 and No 008430, respectively). The classical 4-day suppressive test was carried out (W. Peters, Chemotherapy and drug resistance in malaria, Academic Press: London, 1970). Swiss male mice weighing 20±2 g, were infected with 10^7 P. berghei ANKA parasitized cells (day 0). […] […] Survival of the mice was checked daily and the percentage of parasitized erythrocytes was determined on day 4, by Giemsa-stained thin blood smears made from peripheral blood. The percentage of inhibition of parasitaemia was calculated.

[5] = Toxicity assay, MTT viability on VERO cells; type: cell-based, African Green Monkey; details: African green monkey
Protocol: as §1

[6] = chloroquine-resistant FCR-3 strain, 50% of Plasmodium falciparum growth, average of three independent determinations, read-out: IC50
[7] = FCR3, chloroquine-resistant FCR-3 strain, 50% of Plasmodium falciparum growth, average of three independent determinations, read-out: IC50

Compound: Cl.O=[N+]([O-])c1ccc(N2CCC(NCCC(O)c3ccc(F)cc3)CC2)c(C(F)(F)F)c1 (stereo not drawn) [Compound 7]
- IC50 [1, 6]: 0.48 µM
- CC50 [2]: 30.2 µM
- cytotoxicity after administration [3]: No cytotoxicity was detected
- percentage of inhibition of parasitaemia ([4]; 50 mg/kg/day oral): 76%

Compound: 3-[4-(4-fluorophenyl)-3,6-dihydropyridin-1(2H)-yl]-1-(4-(trifluoromethyl phenyl)propan-1-ol) [Compound 4]
- IC50 [1, 6]: 5.6 µM
- CC50 [2]: > 100 µM

Compound: CCN(CC)CCCC(C)Nc1ccnc2cc(Cl)ccc12 (stereo not drawn) [CQ, chloroquine, reference compound]
- IC50 ([1]; Plasmodium falciparum, FCR3): 0.13 µM
- percentage of inhibition of parasitaemia ([4]; 3 mg/kg/day oral): 65%

Compound: OC(CCN1CC=C(c2ccc(F)cc2)CC1)c1ccc(F)cc1 (stereo not drawn) [Compound 8, 1-(4-fluorophenyl)-3-[4-(4-fluorophenyl)-3,6-dihydropyridin-1 (2H)-yl]propan-1-ol]
- IC50 [1, 7]: 0.66 µM
- melting point: 199 to 201 °C
- CC50 at 48 h [5]: > 100 µM

Compound: O=[N+]([O-])c1ccc(N2CCC(NCCC(O)c3ccc(F)c4ccccc34)CC2)c(C(F)(F)F)c1 (stereo not drawn) [Compound 5, 1-(4-fluoronaphthalen-1-yl)-3-((1-(4-nitro-2-(trifluoromethyl)phenyl)piperidin-4-yl)amino)propan-1-ol]
- IC50 [1, 7]: 0.15 µM
- CC50 at 48 h ([5]; VERO cells (kidney epithelial cells), VERO cells survival, 48 hours, MTT, average of three independent determinations, read-out: TC50): 5.5 µM

Compound: OC(CCN1CC=C(c2ccc(F)cc2)CC1)c1ccc(F)c2ccccc12 (stereo not drawn) [Compound 6, 1-(4-fluoronaphthalen-1-yl)-3-[4-(4-fluorophenyl)-3,6-dihydropyridin-1(2H)-yl]propan-1-ol]
- IC50 [1, 7]: 0.4 µM
- CC50 at 48 h [5]: > 50 µM

Compound: OC(CCN1CC=C(c2ccc(F)cc2)CC1)c1ccc2ccccc2c1 (stereo not drawn) [Compound 3, 3-[4-(4-fluorophenyl)-3,6-dihydropyridin-1(2H)-yl]-1-(naphthalen-2-yl)propan-1-ol]
- IC50 [1, 7]: 36.1 µM
- melting point: 127 to 129 °C
- CC50 at 48 h [5]: > 100 µM
